Results: PubChem BioAssay (NCI)
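A five-concentration, 48-hour dose response in 96-well plates underlies each endpoint, interpolated linearly between surrounding concentrations. TGI: total growth inhibition.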

Legend:
Assay in all cases: NCI tumour cell line growth inhibition, 48 h
SNB-75 CNS = system: SNB-75 CNS
SN12C renal = system: SN12C renal
SW-620 colon = system: SW-620 colon
CAKI-1 renal = system: CAKI-1 renal
ACHN renal = system: ACHN renal
HCT-15 colon = system: HCT-15 colon
DU-145 prostate = system: DU-145 prostate
LOX IMVI melanoma = system: LOX IMVI melanoma
SK-MEL-5 melanoma = system: SK-MEL-5 melanoma
NCI-H460 lung = system: NCI-H460 lung
786-0 renal = system: 786-0 renal
SF-539 CNS = system: SF-539 CNS
HOP-92 NSCLC = system: HOP-92 NSCLC
UACC-257 melanoma = system: UACC-257 melanoma
T-47D breast = system: T-47D breast
CCRF-CEM leukemia = system: CCRF-CEM leukemia
COLO 205 colon = system: COLO 205 colon
MOLT-4 leukemia = system: MOLT-4 leukemia
NCI-H522 lung = system: NCI-H522 lung
MDA-MB-435 = system: MDA-MB-435
HL-60(TB) leukemia = system: HL-60(TB) leukemia
U251 CNS = system: U251 CNS
BT-549 breast = system: BT-549 breast
A498 renal = system: A498 renal
SK-MEL-2 melanoma = system: SK-MEL-2 melanoma
OVCAR-3 ovarian = system: OVCAR-3 ovarian
M14 melanoma = system: M14 melanoma
HCT-116 colon = system: HCT-116 colon
IGROV1 ovarian = system: IGROV1 ovarian
UACC-62 melanoma = system: UACC-62 melanoma
SNB-19 CNS = system: SNB-19 CNS
TK-10 renal = system: TK-10 renal
KM12 colon = system: KM12 colon
HOP-62 NSCLC = system: HOP-62 NSCLC
PC-3 prostate = system: PC-3 prostate
MDA-MB-231 breast = system: MDA-MB-231 breast
K-562 leukemia = system: K-562 leukemia
NCI/ADR-RES ovarian = system: NCI/ADR-RES ovarian
EKVX NSCLC = system: EKVX NSCLC
SF-268 CNS = system: SF-268 CNS
MCF7 breast = system: MCF7 breast
OVCAR-5 ovarian = system: OVCAR-5 ovarian
RPMI-8226 leukemia = system: RPMI-8226 leukemia
OVCAR-4 ovarian = system: OVCAR-4 ovarian
HT29 colon = system: HT29 colon
SK-OV-3 ovarian = system: SK-OV-3 ovarian
OVCAR-8 ovarian = system: OVCAR-8 ovarian
HS 578T breast = system: HS 578T breast
UO-31 renal = system: UO-31 renal
A549 NSCLC = system: A549 NSCLC
SR leukemia = system: SR leukemia
MDA-N = system: MDA-N
SF-295 CNS = system: SF-295 CNS
NCI-H23 lung = system: NCI-H23 lung
NCI-H226 lung = system: NCI-H226 lung
RXF 393 renal = system: RXF 393 renal
SK-MEL-28 melanoma = system: SK-MEL-28 melanoma

O=C(O)CSC(CC1(c2ccc(Cl)cc2)NC(=O)CS1)c1ccc(Cl)cc1 (stereo not drawn)
TGI (SNB-75 CNS): > 100 µM
TGI (SN12C renal): > 100 µM
TGI (SW-620 colon): > 100 µM
TGI (CAKI-1 renal): > 100 µM
TGI (ACHN renal): > 100 µM
TGI (HCT-15 colon): > 100 µM
TGI (DU-145 prostate): > 100 µM
TGI (LOX IMVI melanoma): > 100 µM
TGI (SK-MEL-5 melanoma): > 100 µM
TGI (NCI-H460 lung): > 100 µM
TGI (786-0 renal): > 100 µM
TGI (SF-539 CNS): > 100 µM
TGI (HOP-92 NSCLC): 87.6 µM
TGI (UACC-257 melanoma): > 100 µM
TGI (T-47D breast): > 100 µM
TGI (CCRF-CEM leukemia): > 100 µM
TGI (COLO 205 colon): > 100 µM
TGI (MOLT-4 leukemia): > 100 µM
TGI (NCI-H522 lung): > 100 µM
TGI (MDA-MB-435): > 100 µM
TGI (HL-60(TB) leukemia): > 100 µM
TGI (U251 CNS): > 100 µM
TGI (BT-549 breast): > 100 µM
TGI (A498 renal): > 100 µM
TGI (SK-MEL-2 melanoma): > 100 µM
TGI (OVCAR-3 ovarian): > 100 µM
TGI (M14 melanoma): > 100 µM
TGI (HCT-116 colon): > 100 µM
TGI (IGROV1 ovarian): > 100 µM
TGI (UACC-62 melanoma): > 100 µM
TGI (SNB-19 CNS): > 100 µM
TGI (TK-10 renal): > 100 µM
TGI (KM12 colon): > 100 µM
TGI (HOP-62 NSCLC): > 100 µM
TGI (PC-3 prostate): > 100 µM
TGI (MDA-MB-231 breast): > 100 µM
TGI (K-562 leukemia): > 100 µM
TGI (NCI/ADR-RES ovarian): > 100 µM
TGI (EKVX NSCLC): > 100 µM
TGI (SF-268 CNS): > 100 µM
TGI (MCF7 breast): > 100 µM
TGI (OVCAR-5 ovarian): > 100 µM
TGI (RPMI-8226 leukemia): > 100 µM
TGI (OVCAR-4 ovarian): > 100 µM
TGI (HT29 colon): > 100 µM
TGI (SK-OV-3 ovarian): > 100 µM
TGI (OVCAR-8 ovarian): > 100 µM
TGI (HS 578T breast): > 100 µM
TGI (UO-31 renal): > 100 µM
TGI (A549 NSCLC): > 100 µM
TGI (SR leukemia): > 100 µM
TGI (MDA-N): > 100 µM
TGI (SF-295 CNS): > 100 µM
TGI (NCI-H23 lung): > 100 µM

OCc1cc2c(ccc3sc4ccc5sc6ccc7ncccc7c6c5c4c32)s1
TGI (SNB-75 CNS): 22.8 µM
TGI (SN12C renal): 26.8 µM
TGI (SW-620 colon): > 100 µM
TGI (CAKI-1 renal): 36.6 µM
TGI (ACHN renal): > 100 µM
TGI (HCT-15 colon): 33.6 µM
TGI (DU-145 prostate): 33.6 µM
TGI (LOX IMVI melanoma): 26.6 µM
TGI (SK-MEL-5 melanoma): 11.8 µM
TGI (NCI-H226 lung): > 100 µM
TGI (NCI-H460 lung): 26.3 µM
TGI (786-0 renal): 15.1 µM
TGI (SF-539 CNS): 32.4 µM
TGI (HOP-92 NSCLC): > 100 µM
TGI (UACC-257 melanoma): 37.2 µM
TGI (T-47D breast): 24.9 µM
TGI (CCRF-CEM leukemia): > 100 µM
TGI (COLO 205 colon): 21.3 µM
TGI (MOLT-4 leukemia): 48.4 µM
TGI (NCI-H522 lung): 27.6 µM
TGI (MDA-MB-435): > 100 µM
TGI (HL-60(TB) leukemia): 67.1 µM
TGI (U251 CNS): > 100 µM
TGI (BT-549 breast): 38.6 µM
TGI (A498 renal): > 100 µM
TGI (SK-MEL-2 melanoma): 31.3 µM
TGI (RXF 393 renal): 28.9 µM
TGI (OVCAR-3 ovarian): > 100 µM
TGI (HCT-116 colon): 23 µM
TGI (IGROV1 ovarian): 26.4 µM
TGI (UACC-62 melanoma): 38.6 µM
TGI (SNB-19 CNS): 28.7 µM
TGI (SK-MEL-28 melanoma): > 100 µM
TGI (TK-10 renal): > 100 µM
TGI (KM12 colon): 20.4 µM
TGI (HOP-62 NSCLC): 28.6 µM
TGI (PC-3 prostate): 43.9 µM
TGI (MDA-MB-231 breast): 18.2 µM
TGI (K-562 leukemia): > 100 µM
TGI (NCI/ADR-RES ovarian): 82.5 µM
TGI (EKVX NSCLC): 29.7 µM
TGI (MCF7 breast): 42.2 µM
TGI (OVCAR-5 ovarian): 33 µM
TGI (RPMI-8226 leukemia): 96.2 µM
TGI (OVCAR-4 ovarian): 89.2 µM
TGI (HT29 colon): 39.7 µM
TGI (SK-OV-3 ovarian): 39.9 µM
TGI (OVCAR-8 ovarian): 62.1 µM
TGI (HS 578T breast): 31.9 µM
TGI (UO-31 renal): 7.25 µM
TGI (A549 NSCLC): 31.1 µM
TGI (SR leukemia): > 100 µM
TGI (MDA-N): 23.9 µM
TGI (SF-295 CNS): 27.7 µM
